Measurements reported in paper PMC4045134, “Discovery of Triterpenoids as Reversible Inhibitors of α/β-hydrolase Domain Containing 12 (ABHD12)” (PLoS ONE, 2014).
Entries after “also recorded” stand apart in the source; their conditions may differ. Read-outs that look alike come from different tables or passages of the source.

Tests used:
hABHD12 = biological target: T1, hABHD12 (Homo sapiens, UniProt Q8N2K0); experiment: Fluorescent glycerol assay of 1-AG hydrolysis in hABHD12-HEK293 lysates; type: biochemical; details: for remaining activity at 10 µM: read-out: Remaining activity at 10 µM % ± s.e.m.; for Emax: read-out: max inhibition (converted); for inhibition at 10 µM: read-out: inhibition of hABHD12 at 10 µM
T1 construct: expressed in transfected cells; host or cells: HEK293 (transient)
T1 sequence (Q8N2K0 1-398): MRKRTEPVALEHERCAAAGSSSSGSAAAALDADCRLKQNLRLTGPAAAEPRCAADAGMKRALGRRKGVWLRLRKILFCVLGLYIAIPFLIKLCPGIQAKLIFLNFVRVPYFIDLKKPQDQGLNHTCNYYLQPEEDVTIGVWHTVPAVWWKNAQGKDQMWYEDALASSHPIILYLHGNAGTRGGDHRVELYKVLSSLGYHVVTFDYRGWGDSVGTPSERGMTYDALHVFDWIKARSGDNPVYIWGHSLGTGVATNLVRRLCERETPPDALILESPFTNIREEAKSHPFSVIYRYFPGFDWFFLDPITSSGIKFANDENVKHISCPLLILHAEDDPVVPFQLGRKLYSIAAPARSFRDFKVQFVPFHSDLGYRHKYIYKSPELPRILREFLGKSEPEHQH
Protocol: (§1) Glycerol liberated from 1-AG hydrolysis was determined with a sensitive fluorescent assay using lysates of HEK293 cells with transient overexpression of hABHD12, hABHD6 or hMAGL, essentially as previously described. […] Fluorescence (λex 530; λem 590 nm) was monitored using a Tecan Infinite M200 plate reader (Tecan Group Ltd., Männedorf, Switzerland). Inhibitory activities of selected compounds towards FAAH were determined using membranes of hFAAH overexpressing COS-7 cells, essentially as previously described. The final incubation volume (100 µL) contained 1 µg of protein and the substrate concentration was 20 µM (10 nM of ^3H-anandamide having specific activity of 60 Ci/mmol and concentration of 1 mCi/mL).

hMAGL = biological target: T2, hMAGL (Homo sapiens, UniProt Q99685); experiment: Fluorescent glycerol assay in hMAGL-HEK293 lysates; type: biochemical; details: read-out: inhibition of MAGL at 10 µM
T2 construct: expressed in transfected cells; host or cells: HEK293 (transient)
T2 sequence (Q99685 1-303): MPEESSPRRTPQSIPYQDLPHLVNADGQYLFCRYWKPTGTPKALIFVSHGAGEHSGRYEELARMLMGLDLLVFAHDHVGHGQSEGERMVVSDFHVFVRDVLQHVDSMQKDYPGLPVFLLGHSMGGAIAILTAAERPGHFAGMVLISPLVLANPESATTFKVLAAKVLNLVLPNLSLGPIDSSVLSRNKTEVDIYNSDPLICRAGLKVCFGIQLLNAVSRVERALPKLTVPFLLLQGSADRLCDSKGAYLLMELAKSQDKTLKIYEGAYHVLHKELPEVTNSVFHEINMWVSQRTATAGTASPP
Protocol: as §1

[1] = hABHD12-HEK293 lysates, 10 µM, NI = no inhibition
[2] = hABHD12-HEK293 lysates, three independent experiments, read-out: -logIC50±s.e.m. (converted)
[3] = hABHD12-HEK293 lysates, read-out: IC50

SMILES | remaining activity at 10 µM (hABHD12; [1]) [%] | also measured
CC1(C)CC[C@]2(C(=O)O)CC[C@]3(C)C(=CC[C@@H]4[C@@]5(C)CC[C@H](O)C(C)(C)[C@@H]5CC[C@]43C)[C@@H]2C1 [Compound 7, Oleanolic acid, reference compound] | ~20 | 
CC1(C)CC[C@]2(C)CC[C@]3(C)C(=CC[C@@H]4[C@@]5(C)CC[C@H](O)C(C)(C)[C@@H]5CC[C@]43C)[C@@H]2C1 [Compound 10, β-Amyrin, reference compound] | > 100 | 
COC(=O)[C@]12CCC(C)(C)C[C@H]1[C@H]1C(=O)C=C3[C@@]4(C)C=C(C#N)C(=O)C(C)(C)[C@@H]4CC[C@@]3(C)[C@]1(C)CC2 [Compound 13, CDDO methyl ester, reference compound] | > 100 | 
C=C(C)[C@@H]1CC[C@]2(COC3CCCCO3)CC[C@]3(C)[C@H](CC[C@@H]4[C@@]5(C)CC[C@H](O)C(C)(C)[C@@H]5CC[C@]43C)[C@@H]12 (stereo partly shown) [Compound 29] | > 100 | 
CC1(C)CC[C@]2(C(=O)O)CC[C@]3(C)C(=CC[C@@H]4[C@@]5(C)CC[C@H](O)[C@@](C)(CO)[C@@H]5CC[C@]43C)[C@@H]2C1 [Compound 9, Hederagenin, reference compound] | 78 ± 3 | hABHD12 inhibitory activity (in words) (hABHD12): did not inhibit hABHD12
C=C(C)[C@@H]1CC[C@]2(C(=O)NCCC)CC[C@]3(C)[C@H](CC[C@@H]4[C@@]5(C)CCC(=O)C(C)(C)[C@@H]5CC[C@]43C)[C@@H]12 [Compound 20] | 84 ± 1.5 | 
C=C(C)[C@@H]1CC[C@]2(C(=O)N3CCCC3)CC[C@]3(C)[C@H](CC[C@@H]4[C@@]5(C)CCC(=O)C(C)(C)[C@@H]5CC[C@]43C)[C@@H]12 [Compound 21] | 80 ± 0.3 | 
CC1(C)CC[C@]23CC[C@]4(C)C(CC[C@@H]5[C@@]6(C)Cc7c([nH]c8ccc(F)cc78)C(C)(C)[C@@H]6CC[C@]54C)[C@H]2[C@H]1OC3 (stereo partly shown) [Compound 35] | > 100 | hABHD12 inhibitory activity (in words) (hABHD12): total loss of the inhibitory activity; inhibition at 10 µM (hMAGL): ~50%
C=C(C)[C@@H]1CC[C@]2(COC(=O)CCC(C)=O)CC[C@]3(C)[C@H](CC[C@@H]4[C@@]5(C)CC[C@H](OC(=O)CCC(C)=O)C(C)(C)[C@@H]5CC[C@]43C)[C@@H]12 [Compound 28] | > 100 | 
C=C(C)[C@@H]1CC[C@]2(C(N)=O)CC[C@]3(C)[C@H](CC[C@@H]4[C@@]5(C)Cc6nccnc6C(C)(C)[C@@H]5CC[C@]43C)[C@@H]12 [Compound 43] | 69 ± 0.8 | 
C[C@H]1[C@H](C)CC[C@]2(C)CC[C@]3(C)C(=CC[C@@H]4[C@@]5(C)CC[C@H](O)C(C)(C)[C@@H]5CC[C@]43C)[C@H]12 [Compound 6, α-Amyrin, reference compound] | > 100 | 
C=C(C)[C@@H]1CC[C@]2(C(=O)O)CC[C@]3(C)[C@H](CC[C@@H]4[C@@]5(C)Cc6nccnc6C(C)(C)[C@@H]5CC[C@]43C)[C@@H]12 [Compound 42] |  | IC50 (hABHD12; [2]): 3.55 µM; IC50 (hABHD12; [3]): 3.6 µM; Emax (hABHD12; hABHD12-HEK293 lysates): 56%
C=C(C)[C@@H]1CC[C@]2(CO)CC[C@]3(C)[C@H](CC[C@@H]4[C@@]5(C)CC[C@H](OC(C)=O)C(C)(C)[C@@H]5CC[C@]43C)[C@@H]12 [Compound 30] | > 100 | 
C=C(C)[C@@H]1CC[C@]2(C=O)CC[C@]3(C)[C@H](CC[C@@H]4[C@@]5(C)Cc6cnoc6C(C)(C)[C@@H]5CC[C@]43C)[C@@H]12 [Compound 38] | 84 ± 1.6 | hABHD12 inhibitory activity (in words) (hABHD12): poor inhibitory activity; also recorded: complete loss of the inhibitory activity
CC(C)[C@@]12CC[C@]3(CO)CC[C@]4(C)C(=C31)C(C[C@@H]1[C@@]3(C)CC[C@H](O)C(C)(C)[C@@H]3CC[C@]14C)n1c(=O)n(-c3ccccc3)c(=O)n12 (stereo partly shown) [Compound 39] | 86 ± 0.4 | 
C=C(C)[C@@H]1CC[C@]2(C(=O)O)CC[C@]3(C)[C@H](CC[C@@H]4[C@@]5(C)Cc6cccnc6C(C)(C)[C@@H]5CC[C@]43C)[C@@H]12 [Compound 41] |  | IC50 (hABHD12; [2]): 6.61 µM; IC50 (hABHD12; [3]): 6.7 µM; Emax (hABHD12; hABHD12-HEK293 lysates): 80%
C=C(C)[C@@H]1CC[C@]2(C(=O)O)CC[C@]3(C)[C@H](CC[C@@H]4[C@@]5(C)Cc6ncccc6C(C)(C)[C@@H]5CC[C@]43C)[C@@H]12 [Compound 40, Lupa-2,20(29)-dieno[2,3-b]pyridin-28-oic acid] | 66 ± 1.1 | inhibition at 10 µM (hABHD12): 34%
CC1=C(O)C(=O)C=C2C1=CC=C1[C@@]2(C)CC[C@@]2(C)[C@@H]3C[C@](C)(C(=O)O)CC[C@]3(C)CC[C@]12C [Compound 14, Celastrol, reference compound] | > 100 | 
C[C@H]1[C@H](C)CC[C@]2(C(=O)O)CC[C@]3(C)C(=CC[C@@H]4[C@@]5(C)C[C@@H](O)[C@H](O)[C@@](C)(CO)[C@@H]5CC[C@]43C)[C@H]12 [Compound 5, Asiatic acid, reference compound] | > 100 | hABHD12 inhibitory activity (in words) (hABHD12): did not inhibit hABHD12; also recorded: completely devoid of activity
C=C(C)[C@@H]1CC[C@]2(C(=O)O)CC[C@]3(C)[C@H](CC[C@@H]4[C@@]5(C)CC(O)C(O)C(C)(C)[C@@H]5CC[C@]43C)[C@@H]12 (stereo partly drawn) [Compound 32, 2β,3β-Dihydroxylup-20(29)-en-28-oic acid] |  | IC50 (hABHD12; [2]): 3.72 µM; Emax (hABHD12; hABHD12-HEK293 lysates): 100%
C=C(C)[C@@H]1CC[C@]2(COC(=O)/C=C/c3ccccc3)CC[C@]3(C)[C@H](CC[C@@H]4[C@@]5(C)CC[C@H](O)C(C)(C)[C@@H]5CC[C@]43C)[C@@H]12 [Compound 26] | > 100 | 
C=C(C)[C@@H]1CC[C@]2(C=O)CC[C@]3(C)[C@H](CC[C@@H]4[C@@]5(C)CC[C@H](O)C(C)(C)[C@@H]5CC[C@]43C)[C@@H]12 [Compound 16] | 71 ± 0.8 | inhibition at 10 µM (hABHD12): ~30%
C=C(C)[C@@H]1CC[C@]2(C(=O)O)CC[C@]3(C)[C@H](CC[C@@H]4[C@@]5(C)Cc6c[nH]nc6C(C)(C)[C@@H]5CC[C@]43C)[C@@H]12 [Compound 37] |  | IC50 (hABHD12; [2]): 1.45 µM; Emax (hABHD12; hABHD12-HEK293 lysates): 100%
C=C(C)[C@@H]1CC[C@]2(CO)CC[C@]3(C)[C@H](CC[C@@H]4[C@@]5(C)CC[C@H](O)C(C)(C)[C@@H]5CC[C@]43C)[C@@H]12 [Compound 2, Betulin, reference compound] | ~75 | 
C=C(C)[C@@H]1CC[C@]2(COC(=O)CCC(C)=O)CC[C@]3(C)[C@H](CC[C@@H]4[C@@]5(C)CC[C@H](O)C(C)(C)[C@@H]5CC[C@]43C)[C@@H]12 [Compound 27] | 85 ± 0.5 | 
COC(=O)[C@]1(C)CC[C@]2(C)CC[C@]3(C)C4=CC=C5C(=CC(=O)C(O)=C5C)[C@]4(C)CC[C@@]3(C)[C@@H]2C1 [Compound 15, Pristimerin, reference compound] |  | remaining activity at 10 µM (hABHD12): > 100%
C=C(C)[C@@H]1CC[C@]2(C)CC[C@]3(C)[C@H](CC[C@@H]4[C@@]5(C)CC[C@H](O)C(C)(C)[C@@H]5CC[C@]43C)[C@@H]12 [Compound 3, Lupeol, reference compound] | > 100 | 
